Square brackets hold non-standard residues; d marks the D form. Peptide text beside a SMILES is read from it. Phe(3-F) = N[C@@H](Cc1cccc(F)c1)C(=O)O; hPhe = N[C@@H](CCc1ccccc1)C(=O)O; Abu = CC[C@H](N)C(=O)O; azaGly = NNC(=O)O

By IC50 is commonly meant the concentration at which inhibition is half-maximal.

Common to all, as to format: biochemical
The target of one assay is T1, Human DPP-I (Homo sapiens, UniProt P53634).
T1 construct: purchased UniZyme A/S
Nature of the assay: Human Dipeptidyl Peptidase I (DPP-I) assay, AFC substrate. Particulars: Gly-Phe-AFC substrate, pH 6.0, read-out: Primary enzymatic screening (IC50) DPP-I.

In assay [1] the target is T2, Human neutrophil elastase (Homo sapiens, UniProt P08246).
T2 construct: purchased Calbiochem 324681
T2 sequence (P08246 30-267): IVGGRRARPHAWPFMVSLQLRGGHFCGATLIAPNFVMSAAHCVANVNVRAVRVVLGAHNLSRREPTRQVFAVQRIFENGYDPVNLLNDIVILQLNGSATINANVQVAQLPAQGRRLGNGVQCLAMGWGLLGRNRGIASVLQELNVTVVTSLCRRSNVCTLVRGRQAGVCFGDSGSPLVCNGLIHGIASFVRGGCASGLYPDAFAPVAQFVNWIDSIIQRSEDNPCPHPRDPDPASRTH
Nature of the assay: Human neutrophil elastase assay. On the procedure: Human Neutrophil Elastase Assay
Using this assay, the selectivity of a compound of the invention for hDPP-I over human neutrophil elastase was determined, using a fluorogenic substrate.
Buffer containing 100 mM Tris/HCl pH 7.5 (25° C.), and 500 mM NaCl.
Human neutrophil elastase (Calbiochem Cat # 324681, 50 ng/µL stock) was reconstituted in 50 mM sodium acetate pH 5.5 and 200 mM NaCl, then stored at −20° C. Diluted to 1 ng/μL in buffer just prior to experiment.
MeOSuc-Ala-Ala-Pro-Val-AMC (Calbiochem Cat # 324740) was dissolved in buffer to 4 mM (398 μL/mg) just prior to experiment. Km was determined to be 560 μM.
The assay was performed in 96-well plates. 80 μL assay buffer was added to the well followed by 10 μL enzyme (1 ng/μL). Incubated for 10 min. at 37° C., then 10 μL substrate was added, and subsequently a compound of the invention (10 μM in the assay) The excitation wavelength was 380 nm, and the emission was measured at 460 nm for 10-20 minutes at 37° C. Each measurement was made in duplicate. In the software (SOFTmax Pro) used for data,collection from the fluorometer (Molecular Devices: Gemini XS), it was ensured that the measured slopes were linear (R^2>0.99). Data was exported to GraphPad Prism and nonlinear regression was performed using the option sigmoidal dose-response (variable slope).

The target of the next assay is T3, Human liver cathepsin B (Homo sapiens, UniProt P07858).
T3 construct: Human liver cathepsin B (Enzyme System Products, CAT-B); purchased Enzyme System Products CAT-B; host or cells: human liver
Nature of the assay: Human liver cathepsin B assay. How it is done: Human Liver Cathepsin B Assay
Using this assay, the selectivity of a compound of the invention for hDPP-I over human cathepsin B was determined, using a fluorogenic substrate.
0.1 M MES buffer (1.95 g; M=195.2) and 1 mM EDTA (37 mg; M=372.2) were mixed in 100 mL H2O and pH adjusted to 6.1. DTT (10 μL, 0.5 M) was added for activation of the enzyme […].
Human liver cathepsin B (Enzyme System Products, CAT-B; stock 25 μg/54 μL=463 ng/μL). One aliquot was diluted to a concentration of 40 ng/μL by adding 53 μL assay buffer (without DTT). Just prior to experiment, two more dilution steps were performed: 4 ng/μL: 5 μL (40 ng/μL)+45 μL buffer (without DTT) 0.1 ng/μL: 5 μL (4 ng/μL)+[…] buffer (without DTT)
Boc-Leu-Arg-Arg-AFC.2TFA (Enzyme System Products AFC113). Stock solution made (20 mM; 15.1 mg dissolved in 1 ml DMSO). Diluted further in H2O to 10 mM. Km for this substrate has been determined to be 600 μM.
The assay was performed in 96-well plates. 84 μL assay buffer was added to the well followed by 10 μL 1% DMSO in assay buffer (control) or a compound, of the invention (10 μM in the assay). […] The excitation wavelength was 400 nm, and the emission was measured at 505 nm for 10-20 minutes at 37° C. […] In the software (SOFTmax Pro) used for data collection from the fluorometer (Molecular Devices: Gemini XS), it was ensured that the measured slopes were linear (R^2>0.99). […]

T1 sequence (P53634 231-394 limits assumed): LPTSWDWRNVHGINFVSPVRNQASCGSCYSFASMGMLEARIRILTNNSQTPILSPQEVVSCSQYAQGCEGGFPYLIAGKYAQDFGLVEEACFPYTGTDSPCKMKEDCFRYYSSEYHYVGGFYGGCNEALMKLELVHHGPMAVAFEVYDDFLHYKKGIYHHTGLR
T1 sequence (P53634 395-463 limits assumed): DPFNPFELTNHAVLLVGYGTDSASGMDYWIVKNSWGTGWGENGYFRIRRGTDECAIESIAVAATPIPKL
T1 sequence (P53634 25-143 limits assumed): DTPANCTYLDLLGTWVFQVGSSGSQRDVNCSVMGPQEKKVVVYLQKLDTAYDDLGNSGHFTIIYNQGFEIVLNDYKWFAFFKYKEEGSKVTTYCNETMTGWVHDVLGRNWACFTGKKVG
Experimental for Human DPP-I: Human Dipeptidyl Peptidase I (DPP-I) Assay
Using this assay, the IC50 value of a compound of the invention as a DPP-I inhibitor was determined using an AFC substrate.
100 mM sodium phosphate (8.9 g Na2HPO4; M=177.99), 150 mM KCl (5.6 g KCl; M=74.6) and 1.5 mM EDTA (279 mg EDTA; M=372.2) was dissolved in 500 mL H2O, and pH was adjusted to 6.0. Cysteine*HCl (Sigma C-1276; M=157.6), 1 mg/mL assay buffer, corresponding to 6 mM, was added to the solution for activation of the DPP-I enzyme.
Gly-Phe-AFC*TFA (Enzyme Systems Products AFC-033) was used as the substrate for determination of IC50 values. […] The substrate was solubilized in DMSO to give a 7.5 mM stock solution (2.2 mg of substrate was added to 0.5 mL DMSO).
Human DPP-I (hDDP-I; obtained from UniZyme A/S, DK-2970 Horsholm, Denmark) was stored at −20° C. in a buffer containing 2.5 mM Na-phosphate, 150 mM NaCl, 2 mM cysteamine, 50% glycerol, pH 7.0 at a concentration of 2.5 mg/mL. This stock solution was diluted 200 times in the assay buffer.
Th assay was performed in 96-well plates. […] The excitation wavelength was 400 nm, and the emission was measured at 505 nm for 10 minutes at 37° C. […] In the software (SOFTmax Pro) used for data collection from the fluorometer (Molecular Devices: Gemini XS), it was erisured that the measured slopes were linear (R^2>0.99). […]

As to `CC[C@H](N)C(=O)NNC(=O)N[C@@H](CCc1ccccc1)C(=O)N[C@@H](Cc1cccc(F)c1)C(N)=O` [Example 11, 1-(2S-2-Aminobutanoyl)-4-[2S-N-[2S-3-(m-fluorophenyl)propan-2-yl-amide]-4-phenylbutan-2-yl-amide]semicarbazide] (H-[Abu][azaGly][hPhe][Phe(3-F)]-NH2), the IC50 was 0.04 ± 0.006 µM at Human DPP-I; over 10 µM in assay [1] (human neutrophil elastase, 10 μM cutoff, read-out: Secondary enzymatic screening (10 μM cutoff or IC50) Neutrophil elastase); 4.5 µM on Human liver cathepsin B (human liver cathepsin B, read-out: Secondary enzymatic screening (10 μM cutoff or IC50) Cathepsin B). In assay [1], the “Inhibition of neutrophil elastase (in words)” value was “does not inhibit”. In addition, at Human liver cathepsin B, the “Inhibition of Cathepsin B (in words)” value is “does not inhibit”.

Source of the values: patent publication US20070155803A1, “Protease inhibitors” (ProZymex A/S, priority 2003, published 2007).
